Experimental data: patent US20240382477A1, “NITROGEN-CONTAINING HETEROCYCLIC PYRIDINE COMPOUND” (SHANGHAI ZHEYE BIOTECHNOLOGY CO. LTD., priority 2021, published 2024)
Like-named read-outs stand apart in the source and are kept apart here.

Experiments:
[1] = test system: psoriasis-like mouse model induced by imiquimod; assay: Efficacy test in psoriasis-like mouse model induced by imiquimod (PASI score); format: in vivo, Balb/c mice
Procedure: Experimental animal: Balb/c mice.
• (1) negative control group (applying Vaseline, administering solvent intragastrically), • (2) model control group [applying imiquimod (IMQ)], • (3) administration group (applying IMQ, administering Compound 7, Compound 8, Compound 9, Compound 10, and Compound No. 146 intragastrically); • wherein, “Compound No. 146” refers to the compound in Example 146 of reference WO2014074661, which was prepared according to the method described therein.
(§1) Administration dosage and method: 20 mg/kg, BID, intragastric administration.
Experiment process: On Day 0, the animals were subjected to hair shaving on the test area of the back, and then they were grouped. From Day 1 to Day 7, one hour after the first administration in every morning, 40 mg of 5% imiquimod cream was applied once to the test area on the back, after that, a second administration was conducted on the same day. The skin lesion symptoms of psoriasis and efficacy were evaluated through Psoriasis Area and Severity Index (PASI) score (erythema, scale, thickening degree). The higher the score, the more severe the symptoms are.
PASI score results on day 7 are listed in the table below, wherein, • “+” represents a score of ≥6; • “++” represents a score of greater than 5 and less than 6; • “+++” represents a score of greater than 4 and less than or equal to 5; • “++++” represents a score of less than or equal to 4.
By using the same scheme as test example 1, pharmaceutical efficacy in psoriasis-like mouse model induced by imiquimod was studied.
By using the same scheme as test example 1, pharmaceutical efficacy in psoriasis-like mouse model induced by imiquimod was studied. PASI score results on Day 7 are listed in the table below, wherein, • “+” represents a score of ≥6; • “++” represents a score of greater than 5 and less than 6; • “+++” represents a score of greater than 4 and less than or equal to 5; • “++++” represents a score of less than or equal to 4.

TYK2-JH2 = TYK2-JH2 (Homo sapiens, UniProt P29597); assay: Enzymology experiment in vitro: TYK2-JH2 binding (Tb antibody/Tracer fluorescence ratio); conditions: for IC50: read-out: TYK2-JH2 binding inhibitory activity (IC50 value)
[2] = test system: pSTAT5 expression in CD3+ cells; assay: Inhibition of pSTAT5 expression in CD3+ cells of IFN-alpha stimulated human PBMC by FACS; format: cell-based; conditions: read-out: Inhibitory activity on p-STAT5 expression (IC50 value)
Procedure: Compound dilution and preparation: The test compound was prepared into a 10 mM solution using DMSO, and diluted in DMSO to obtain a solution with a gradient of different concentrations which was 500 times of the final concentration. 5 μL of the diluted compound was transferred into 120 μL of PBS solution containing 0.1% BSA. Positive and negative control groups were set up with 0.2% DMSO ultimately contained in each group.
• 1) Human PBMC cells were added into a 96-well cell culture plate, with 0.5 million cells and a volume of 67.5 μL per well. • 2) 3.5 μL of the diluted compound was added and mixed evenly. • 3) The incubation was carried out in a 37° C. incubator for 60 minutes. • 4) IFN-alpha was diluted to 600 ng/ml in DPBS containing 0.1% BSA. After the above 60-minute incubation, 5 μL of PE-anti-hCD3 antibody was added into each well, then 4 μL of the diluted IFN-alpha was also added into each well. • 5) The incubation was carried out in a 37° C. incubator for 30 minutes. • 6) All cells were transferred into a 96-deep-well plate and added with 1 mL of Lyse/fix buffer preheated at 37° C. • 7) The incubation was carried out in dark at 37° C. for 10 minutes. • 8) The plate was centrifuged at 600 g for 5 minutes with the supernatant abandoned, then washed twice with 1 mL of PBS and centrifuged. • 9) 1 mL of Perm buffer III was added into the cell precipitation. • 10) The incubation was carried out in dark at 4° C. for 30 minutes. • 11) The plate was centrifuged at 600 g for 5 minutes with the supernatant abandoned, then washed twice with 1 mL of PBS and centrifuged. • 12) APC anti-human pSTAT5 antibody was diluted 200 times in Staining buffer, then added into the cell wells with 100 μL per well, and mixed evenly. • 13) The incubation was carried out at room temperature for 40 minutes. • 14) The plate was washed twice with 1 mL of Staining buffer per well, and centrifuged at 600 g for 5 minutes. • 15) After the supernatant was abandoned, the cell precipitation was resuspended in 300 μL of Staining buffer. • 16) The sample was loaded and analyzed in a Beckman CytoFlex flow cytometer.

IL-17F = assay: Rat model with increased IL-17 induced by imiquimod, intragastric administration; format: in vivo, SD rats; conditions: for skin lesions in rats: after treatment by intragastric administration
Procedure: Experimental animal: 8 to 10-week old SD rats, half male and half female.
• (1) negative control group (applying Vaseline, administering solvent intragastrically), • (2) model control group [applying imiquimod (IMQ)], • (3) administration group (applying IMQ, administering the compounds of the present invention intragastrically).
as §1
Model establishment: SD rat was subjected to application of 40 mg of imiquimod ointment on its back skin once a day to construct the rat model. […]
By using the same scheme as biological test example 8, the efficacy of the compounds of the present invention was evaluated, and the following test results were obtained: […]

[3] = Pharmacokinetic study in vivo; conditions: rat, plasma; male SD rats; 1 mg/kg IV, 10 mg/kg PO (intragastric), single administration; read-out: Absolute bioavailability(F %)
Procedure: Experimental animal: 8 to 10 week-old male SD rats, fasted 12 hours before administration. Intragastric administration: mixed solution (ethanol+TPGS+PEG300=5:5:90) was used as the administration solvent. Injection administration: mixed solution (PEG400+ddH20=80:20) was used as the administration solvent. Administration capacity: 5 ml/kg. Animal grouping: intravenous IV group and intragastric PO group, with 3 male SD rats in each group. Administration route and dosage: 1 mg/kg for intravenous IV group; 10 mg/kg for intragastric PO group. Administration frequency: single administration. • IV blood collection points: 5 minutes, 15 minutes, 30 minutes, 1 hour, 2 hours, 4 hours, 6 hours, 8 hours, and 24 hours after administration; • PO blood collection points: 15 minutes, 30 minutes, 1 hour, 2 hours, 4 hours, 6 hours, 8 hours, and 24 hours after administration. The whole blood of rat was centrifuged at 10000 rpm for 5 minutes to separate plasma, which was stored at 4° C. 0.1 ml of the plasma was taken, added with 0.2 ml of acetonitrile, vortexed for 1 minute, and centrifuged at 10000 rpm for 5 minutes to take the supernatant, which was sent for analysis of drug content after 0.22 μm filtration.

[4] = Test Example 6, same scheme as test example 1, day 7
[5] = human PBMC, CD3+ cells, IFN-alpha stimulation, FACS
[6] = Test Example 9, same scheme as test example 8
[7] = Test Example 1, Balb/c mice, imiquimod, 20 mg/kg BID intragastric, day 7, higher score = more severe
[8] = Test Example 8, SD rats, imiquimod, 20 mg/kg BID intragastric, day 6

TYK2-JH2, sequence (P29597 589-875 limits assumed): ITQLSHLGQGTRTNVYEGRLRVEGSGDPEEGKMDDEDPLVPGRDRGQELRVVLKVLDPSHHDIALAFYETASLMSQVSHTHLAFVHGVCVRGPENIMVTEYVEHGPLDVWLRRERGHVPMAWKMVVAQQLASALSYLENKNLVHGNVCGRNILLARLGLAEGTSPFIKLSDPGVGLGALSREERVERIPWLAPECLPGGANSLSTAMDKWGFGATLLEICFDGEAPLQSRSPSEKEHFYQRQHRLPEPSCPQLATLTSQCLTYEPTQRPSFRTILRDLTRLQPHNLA

Row | Compound | PASI score [1, 4] | IC50 (TYK2-JH2) | further results
1 | [2H]C([2H])([2H])NC(=O)c1nnc(NS(=O)(=O)C2CC2)cc1Nc1cccc(-c2ncn(C)n2)c1OC [Compound 1-8] | + (a score of ≥6) |  | 
2 | [2H]C([2H])([2H])NC(=O)c1nnc(NC(=S)C2CC2)cc1Nc1nccc(-c2ncn(C)n2)c1OC [Compound 2-1A-1] | ++++ (a score of less than or equal to 4) | < 0.1 nM | IC50 [2, 5]: < 1 nM; Content level of IL-17F in skin (IL-17F; [6]): A (an IL-17F content less than 30 pg/mL); skin lesions in rats (IL-17F): significantly reduced
3 | [2H]C([2H])([2H])NC(=O)c1nnc(NC(=O)C2CC2)cc1Nc1cccc(-c2nnn(CC#C)n2)c1OC [Compound 2-1B-1] | ++ (a score of greater than 5 and less than 6) | 0.1 to 0.5 nM | IC50 [2, 5]: 5 to 10 nM
4 | [2H]C([2H])([2H])NC(=O)c1nnc(NC(=O)C2CC2([2H])[2H])cc1Nc1nccc(-c2ncn(CC#C)n2)c1OC (centres unmarked) [Compound 10] |  |  | PASI score [1, 7]: ++++ (a score of less than or equal to 4); effect on the activity of TYK2-JH2 (in words) (TYK2-JH2): have inhibitory effects on the activity of TYK2-JH2; IC50 ([2]; Homo sapiens, PBMC): < 1 nM
5 | [2H]C([2H])([2H])NC(=O)c1nnc(NC(=O)C2CC2)cc1Nc1cccc(-c2ncn(COCC[Si](C)(C)C)n2)c1OC [Compound 1-3] | ++ (a score of greater than 5 and less than 6) |  | 
6 | [2H]C([2H])([2H])NC(=O)c1nnc(NC(=O)C2CC2)cc1Nc1cccc(-c2ncn(C3(C(=O)OC)CC3)n2)c1OC [Compound 1-7] | ++ (a score of greater than 5 and less than 6) |  | 
7 | [2H]C([2H])([2H])NC(=O)c1nnc(NC(=O)C2CC2)cc1Nc1cccc(-n2cccn2)c1OC [Compound 1-5] | ++ (a score of greater than 5 and less than 6) |  | 
8 | [2H]C([2H])([2H])NC(=O)c1nnc(NC(=O)C2CC2)nc1Nc1cccc(-c2ncn(CC#C)n2)c1OC [Compound 2-1B-2] | ++ (a score of greater than 5 and less than 6) | 0.5 to 1 nM | IC50 [2, 5]: 5 to 10 nM
9 | [2H]C([2H])([2H])NC(=O)c1nnc(NC(=O)C2([2H])CC2)cc1Nc1nccc(-c2ncn(CC#C)n2)c1OC [Compound 11] | ++++ (a score of less than or equal to 4) | < 0.1 nM | PASI score ([1]; Test Example 2, same scheme as test example 1, day 7): ++++ (a score of less than or equal to 4); IC50 ([2]; Homo sapiens, PBMC): < 1 nM; bioavailability [3]: 97.8%; Content level of IL-17F in skin (IL-17F; [8]): A (an IL-17F content less than 30 pg/mL); skin lesions in rats (IL-17F): significantly reduced
10 | [2H]C([2H])([2H])NC(=O)c1nnc(NC(=O)C2CC2)cc1Nc1cccc(-n2ccnn2)c1OC [Compound 1-6] | ++ (a score of greater than 5 and less than 6) |  | 
11 | [2H]C([2H])([2H])NC(=O)c1nnc(NC(=O)C2CC2)cc1Nc1cccc(-c2ccn(CC#C)n2)c1OC [Compound 2-1B-7] | ++ (a score of greater than 5 and less than 6) | 0.1 to 0.5 nM | IC50 [2, 5]: 5 to 10 nM
12 | [2H]C([2H])([2H])NC(=O)c1nnc(NC(=O)C2CC2)cc1Nc1cccc(-c2ncn(CCNC(C)=S)n2)c1OC [Compound 1-4] | ++ (a score of greater than 5 and less than 6) |  | 
13 | [2H]C([2H])([2H])NC(=O)c1nnc(NC(=O)C2CC2)cc1Nc1nccc(-c2ncn(CC#C)n2)c1OC [Compound 7] | ++++ (a score of less than or equal to 4) | < 0.1 nM | PASI score [1, 7]: ++++ (a score of less than or equal to 4); IC50 ([2]; Homo sapiens, PBMC): < 1 nM; Content level of IL-17F in skin (IL-17F; [8]): A (an IL-17F content less than 30 pg/mL); skin lesions in rats (IL-17F): significantly reduced
14 | [2H]C([2H])([2H])NC(=O)c1nnc(NC(=O)C=C)cc1Nc1cccc(-c2ncn(C)n2)c1OC [Compound 1-9] | + (a score of ≥6) |  | 
15 | [2H]C([2H])([2H])NC(=O)c1nnc(NC(=N)C2CC2)cc1Nc1cccc(-c2ncn(C)n2)c1OC [Compound 1-1-1] | + (a score of ≥6) |  | Content level of IL-17F in skin (IL-17F; [6]): D (an IL-17F content ranging from 300 pg/mL to 400 pg/mL)
16 | [2H]C#CC([2H])([2H])n1cnc(-c2ccnc(Nc3cc(NC(=O)C4CC4)nnc3C(=O)NC([2H])([2H])[2H])c2OC)n1 [Compound 9] | ++++ (a score of less than or equal to 4) | < 0.1 nM | PASI score [1, 7]: ++++ (a score of less than or equal to 4); IC50 ([2]; Homo sapiens, PBMC): < 1 nM
17 | [2H]C([2H])([2H])NC(=O)c1nnc(NC(=O)C2CC2)cc1Nc1nccc(-c2ncn(C([2H])([2H])C#C)n2)c1OC [Compound 8] | ++++ (a score of less than or equal to 4) | < 0.1 nM | PASI score [1, 7]: ++++ (a score of less than or equal to 4); IC50 ([2]; Homo sapiens, PBMC): < 1 nM
